Patent US20080253996A1, “Use of Sdf-1 for the Treatment and/or Prevention of Neurological Diseases” (LABORATORIES SERONO SA, priority 2005, published 2008)

How the values were obtained:
STZ-rats [1] = test: STZ diabetic neuropathy, electromyography (CMAP latency, SNCV); type: in vivo, rat; settings: D25 post-STZ (similar profile at D40), IL-6 10 μg/kg s.c.; for sensory nerve conduction velocity (SNCV) of diabetic rats: SDF-1α 10, 30, 100 μg/kg (best effect 10 and 30 μg/kg); for CMAP latency of diabetic rats vs vehicle-treated diabetic rats: SDF-1α 10, 30, 100 μg/kg
Experimental: (§1) Eight week-old male Sprague Dawley rats (Janvier, Le Genest Saint Isle, France) were randomly distributed in 6 experimental groups (n=10) as shown below.
(§2) Diabetes was induced by intravenous injection of a buffered solution of streptozotocin (Sigma, L'Isle d'Abeau Chesnes, France) at a dose of 55 mg/kg. STZ was prepared in 0.1 mol/l citrate buffer pH 4.5. Control group received an equivalent volume of citrate buffer. The day of STZ injection was considered as D0.
Treatment with SDF-1α, with IL-6 or their matched vehicle was performed on daily basis from D11 to D40.
Planning of Experiments • Day −7: baseline (EMG) • Day 0: induction by the streptozotocin • Day 7: glycemia monitoring • Day 11: Onset of the treatment • Day 20: Von Frey test • Day 25: EMG monitoring • Day 40: EMG monitoring and HP 52° C. test • Day 41: sciatic nerves and skin biopsy samples were taken off for the histomorphometric analysis.
Electrophysiological recordings were performed using electromyograph (Keypoint, Medtronic, Boulogne-Billancourt, France). Rats were anaesthetized by intraperitoneal injection (IP) of 60 mg/kg ketamine chlorhydrate (Imalgene 500®, Rhône Mérieux, Lyon. France) and 4 mg/kg xylazin (Rompum 2%, Bayer Pharma, Kiel, Germany). The normal body temperature was maintained at […] with a heating lamp and controlled by a contact thermometer (Quick, Bioblock Scientific, Illkirch, France) placed on the tail surface.
Compound muscle action potential (CMAP) was recorded in the gastrocnemius muscle after stimulation of the sciatic nerve. A reference electrode and an active needle were placed in the hindpaw. A ground needle was inserted on the lower back of the rat. Sciatic nerve was stimulated with a single 0.2 ms pulse at a supramaximal intensity. The velocity of the motor wave was recorded.
Sensitive nerve conduction velocity (SNCV) was also recorded. The tail skin electrodes were placed as follows: a reference needle inserted at the base of the tail and an anode needle placed 30 mm away from the reference needle towards the extremity of the tail. A ground needle electrode was inserted between the anode and reference needles. The caudal nerve was stimulated with a series of 20 pulses (for 0.2 ms) at an intensity of 12.8 mA. The velocity was expressed in m/s.
Global analysis of the data was performed using one factor or repeated measure analysis of variance (ANOVA) and one-way ANOVA. When ANOVA indicated significant difference, Fisher Protected Least Significant Difference was used as post-hoc test to compare experimental groups with the group of diabetic rats treated with the vehicle. The level of significance was set at p≦0.05. Results are expressed as mean ±standard error of the mean (s.e.m.).

STZ-rats [2] = test: Von Frey filament test in STZ diabetic rats; type: in vivo, rat; settings: day 20 post-STZ; SDF-1α 10, 30, 100 μg/kg, IL-6 10 μg/kg s.c.
Experimental: as §1
as §2, with “The control” for “Control”
(§3) Treatment with SDF-1α with IL-6 or their matched vehicle was performed on daily basis from D11 to D40.
The rat was placed on a metallic grid floor. The nociceptive testing was done by inserting the Von Frey filament (Bioseb, France) through the grid floor and applying it to the plantar surface of the hind paw. A trial consisted of several applications of the different von Frey filaments (at a frequency of 1-1.5 s). The Von Frey filaments were applied from filament 10 g to 180 g. The pressure that produces a brisk withdrawal of hind paw was considered as threshold value. Cuttoff value was set to 180 g.

STZ-rats [3] = test: Hot plate 52° C. test in STZ diabetic rats; type: in vivo, rat; settings: D40 post-STZ, SDF-1α 10, 30, 100 μg/kg, IL-6 10 μg/kg s.c.
Experimental: as §1
as §2, with “The control” for “Control”
as §3
The animal was placed into a glass cylinder on a hot plate adjusted to 52° C. The latency of the first reaction was recorded (licking, brisk movement of the paws, little leaps or a jump to escape the heat) with a cutoff time of 30 s.

[4] = test system: primary mixed cortical cultures stimulated with LPS; test: Cytokine release (TNF-α, IL-6) from LPS stimulated primary mixed cortical cultures; type: cell-based, mouse
Experimental: Culturing of primary cells was performed as described (Lubetzki et al., 1993) using brain tissue from embryos isolated from NMRI mice at 16 days post-coitum. Cerebral hemispheres were dissected from embryo brains, dissociated via trypsin digestion and the single cell suspension was seeded at 5×10^4 cells in 50 μl myelination medium per well onto BioCoat® poly-L-lysine coated 96-well plates (356516, Becton Dickinson). The myelination medium consisted of Bottenstein-Sato medium (Bottenstein and Sato, 1979; Sadir et al., 2001), supplemented with 1% FCS, 1% penicillin-streptomycin solution (Seromed) and recombinant platelet-derived growth factor AA (PDGF-AA, R&D Systems) at 10 ng/mL.
For testing the effects of SDF-1α and SDF-1α variant (as defined in SEQ ID NO: 4) on LPS stimulated cultures, cells were allowed to grow for two weeks. At day 14 cells were pre-incubated with increasing concentrations (0.001, 0.1 and 10 ng/ml) of the corresponding proteins into 25 μl of medium for three hours at 37° C. and 10% CO2. LPS was then supplemented to the cells at the concentration of 5 ng/ml into 25 μl of medium to obtain a final volume of 100 μl and incubated for 48 hours. Supernatants were collected at day 16 and the levels of TNF-α and IL-6 (the major cytokines released by activated microglia) were measured via specific ELISAs purchased from R&D systems (DuoSet mouse TNF-α ELISA DY410, mouse IL-6 ELISA DY406).
Global analysis of the data was performed using one-way ANOVA. Dunnett's test was used further, and data were compared to the “untreated cells”. The level of significance was set at a: p<0.001; b or **: p<0.01; c or *: p<0.05; d: p<0.1. The results were expressed as mean ±standard error of the mean (s.e.m.).

[5] = pre-incubation 3 h (SDF proteins 0.001, 0.1, 10 ng/ml; IL-10 10 ng/ml; dexamethasone 25 pM), then LPS 5 ng/ml 48 h, ELISA, compared to untreated cells

In the case of “IL-6: reference (positive) control compound in nerve crush and STZ models [reference compound]”, the “sensory nerve conduction velocity (SNCV) of diabetic rats” value (STZ-rats [1]) is reported as “significantly improved”, the “CMAP latency of diabetic rats vs vehicle-treated diabetic rats” value (STZ-rats [1]) is reported as “significant reduction” and the “threshold value in Von Frey test vs vehicle-treated diabetic rats” value (STZ-rats [2]) is reported as “significant increase”. The “threshold latency in the hot plate test” value (STZ-rats [3]) was “significantly lowered”.

“SDF-1α: Human recombinant chemokine SDF-1α (SEQ ID NO: 1), produced in house, expressed in E. Coli cells” was tested, and the “levels of IL-6 secretion” value [4, 5] was “significantly decreased”, the “levels of TNF-α secretion” value [4, 5] was “significantly decreased” and the “best concentration for decrease of TNF-α and IL-6 secretion” value ([4]; tested 0.001, 0.1 and 10 ng/ml, LPS 5 ng/ml 48 h) was 10 ng/mL. The “sensory nerve conduction velocity (SNCV) of diabetic rats” value (STZ-rats [1]) was “significantly improved”, the “CMAP latency of diabetic rats vs vehicle-treated diabetic rats” value (STZ-rats [1]) was “significant reduction” and the “threshold value in Von Frey test vs vehicle-treated diabetic rats” value (STZ-rats [2]) was “significant increase”. The “threshold latency in the hot plate test” value (STZ-rats [3]) was “significantly lowered”.
